Test results reported in ChEMBL document CHEMBL4002608, “Discovery of new MurA inhibitors using induced-fit simulation and docking” (Bioorg Med Chem Lett, 2017).
Activity calls are given as the source filed them. The rule behind the calls is not given here.

Experiments:
[1] = tested on: Escherichia coli DH5[alpha]; assay: Inhibition of Escherichia coli DH5alpha C-terminal His6-tagged MurA expressed in Escherichia coli BL21(DE3) assessed as residual activity at 100 uM using UNAG as substrate after 15 mins in presence of PEP by malachite green dye based spectrophotometric method relative to control
[2] = Inhibition of Enterobacter cloacae MurA
[3] = Inhibition of Escherichia coli DH5alpha C-terminal His6-tagged MurA expressed in Escherichia coli BL21(DE3) using UNAG as substrate after 15 mins in presence of PEP by malachite green dye based spectrophotometric method; set-up: species or system Escherichia coli DH5[alpha]
Escherichia coli = assay: Antibacterial activity against Escherichia coli ATCC 25922 after 20 to 24 hrs by broth microdilution assay; type: functional
Staphylococcus aureus = assay: Antibacterial activity against Staphylococcus aureus ATCC 29213 after 20 to 24 hrs by broth microdilution assay; type: functional
[4] = tested on: Escherichia coli DH5[alpha]; assay: (§1) Reversible inhibition of Escherichia coli DH5alpha C-terminal His6-tagged MurA expressed in Escherichia coli BL21(DE3) at 5 uM preincubated for 30 mins followed by compound dilution and subsequent substrate UNAG addition measured after 20 mins in presence of PEP by malachite green dye based spectrophotometric method
[5] = Inhibition of Haemophilus influenzae MurA
[6] = Inhibition of methicillin-resistant Staphylococcus aureus MurA
[7] = Inhibition of Escherichia coli MurA
[8] = tested on: Escherichia coli DH5[alpha]; assay: as §1, with “Irreversible inhibition” for “Reversible inhibition”, “at 0.8” for “at 5”
[9] = Inhibition of Staphylococcus aureus MurA

In the case of `O=C(O)C[C@H]1c2ccccc2CCN1C(=O)c1cc(=O)[nH]c2ccccc12`, the Activity [1] is reported as 85%.
For `C[C@@H](Oc1ccc2ccccc2c1)C(=O)NCc1nc(-c2ncccn2)no1`, the Activity [1] was 98%.
With `CC1=C(O)C(=O)[C@H]2O[C@@H]2C1=O` the IC50 [2] was 14000 nM.
For `O=C(c1cnn(Cc2ccccc2)c1)N1CC=C(c2c[nH]c3ncccc23)CC1`, the IC50 [3] was 109000 nM, the Activity (Escherichia coli) was “inactive” and the Activity (Staphylococcus aureus) was “inactive”. For the same compound, the Activity [1] was less than 50%.
Work on `Cc1cc(C)nc(-c2cccc3c2O[C@@H](CNC(=O)c2ccc(N4CCN(C)CC4)cc2)C3)n1` yielded an Activity [1] of 98%.
`CCOc1ccc(N2C(=O)[C@@H]3C4c5ccccc5C(C(=O)O)(c5ccccc54)[C@@H]3C2=O)c([N+](=O)[O-])c1` gave an Activity [1] of 78%.
In the case of `Cc1ncc2c(c1CNC(=O)c1cc3ccccc3[nH]1)CCN(C(=O)C1=CCCC1)C2`, the Activity [1] is reported as 66%.
In the case of `O=C1[C@@H]2C3c4ccccc4C(C(=O)O)(c4ccccc43)[C@@H]2C(=O)N1c1cccc([N+](=O)[O-])c1`, the Activity [1] is reported as 98%.
Compound `O=C(O)c1nn(CCCc2ccccc2)c2c1CN(C(=O)c1ccc[nH]1)CC2` has an Activity [1] of 91%.
In the case of `O=C(O)c1c([C@@H](C(=O)O)N2CCN(c3ccccn3)CC2)c2ccccc2n1Cc1ccccc1`, the Activity [1] is reported as 87%.
Work on `O=C(O)c1nn(CCCc2ccccc2)c2c1CN(C(=O)c1cnc[nH]1)CC2` yielded an Activity [1] of 96%.
`CC(=O)N1CCN([C@H](C(=O)O)c2c(C(=O)O)n(Cc3ccccc3)c3ccccc23)CC1` gave an Activity [1] of 96%.
`Cc1ccccc1-n1cc(CN[C@H]2CCCN(c3ncccn3)C2)cn1` gave an Activity [1] of 99%.
In the case of `Cc1n[nH]c(S/C(=C/c2ccc(-c3cccc(C(=O)O)c3)o2)C(=O)O)n1`, the IC50 [3] is reported as 1000 nM, the Activity (Escherichia coli) is reported as “inactive” and the Activity (Staphylococcus aureus) is reported as “inactive”. For the same compound, the inhibition [4] was “Active” and the Activity [1] was less than 50%.
For `O=C1C(Oc2ccc(O)cc2)=C(Cl)C(=O)c2ncccc21`, the IC50 [5] was 2800 nM.
Work on `O=C(Nc1cc(CCc2ccccc2)ccn1)[C@H]1CCCN(c2ncccn2)C1` yielded an Activity [1] of 99%.
Compound `Cc1ccccc1-c1cccc(CN[C@H]2CCCN(c3ncccn3)C2)c1` has an Activity [1] of 86%.
With `CS(=O)(=O)N1CCN([C@H](C(=O)O)c2c(C(=O)O)n(Cc3ccccc3)c3ccccc23)CC1` the Activity [1] was 99%.
Work on `O=C(O)COc1ccccc1[C@@H]1C2=C(CCCC2=O)Nc2nc(SCc3ccccn3)nn21` yielded an Activity [1] of 91%.
Work on `CS(=O)(=O)N1CCc2cc(C(=O)N3CCC(c4cc5ccccc5[nH]4)CC3)ccc21` yielded an Activity [1] of 85%.
Compound `C=C(C(=O)OC)[C@@H]1[C@@H](CCCCCCCC)OC(=O)[C@@H]1O` has an IC50 [6] of 6700 nM and an IC50 [7] of 2800 nM.
`C=C1C(=O)OCC1O` (racemic) [(+/-)-TULIPALINE B] gave an IC50 [7] of 200 nM.
`c1ccc(CN2CC[C@@H](Nc3nncc(-c4cc5ccccc5o4)n3)C2)cc1` gave an Activity [1] of 82%.
In the case of `CN1CCN([C@H](C(=O)O)c2c(C(=O)O)n(Cc3ccccc3)c3ccccc23)CC1`, the Activity [1] is reported as 94%.
Work on `CCc1cc(C(=O)N2CCN[C@H](C(=O)O)C2)c(NC(=O)c2ccccc2)s1` yielded an Activity [1] of 63%.
With `O=C(O)[C@H]1C[C@@H](C(=O)N2CCCC2)CN(C(=O)c2[nH]nc3c2CCCC3)C1` the Activity [1] was 100%.
In the case of `CCOc1ccc(N2C(=O)[C@@H]3C4c5ccccc5C(C(=O)O)(c5ccccc54)[C@@H]3C2=O)cc1`, the Activity [1] is reported as 100%.
With `O=C(O)c1ccc(-c2nccn2Cc2nc3ccccc3c(=O)[nH]2)cc1` the IC50 [3] was 82000 nM, the Activity (Escherichia coli) was “inactive” and the Activity (Staphylococcus aureus) was “inactive”. It also gave an Activity [1] of less than 50%.
For `C[C@@H]1O[C@@H]1P(=O)(O)O` [FOSFOMYCIN], the IC50 [3] was 41000 nM, the inhibition [8] was “Active” and the Activity [1] was less than 50%.
Work on `O=C(CCN1CCCO1)N1CCc2[nH]nc(-c3cccc4ccccc34)c2C1` yielded an Activity [1] of 86%.
Work on `O=C(O)[C@H]1CC2(CCN(C(=O)c3cc4ccccc4[nH]3)CC2)CN1C(=O)C1CC1` yielded an Activity [1] of 100%.
`Cc1c(C(=O)N2CCC[C@@H](C(N)=O)C2)sc2ncnc(NCCCc3ccccc3)c12` showed an Activity [1] of 100%.
With `O=[N+]([O-])/C(Br)=C/c1ccc(Br)o1` the IC50 [9] was 3900 nM and the IC50 [7] was 2800 nM.
For `O=c1oc2c(Cl)cc(O)c(Cl)c2s1`, the IC50 [9] was 1090 nM and the IC50 [7] was 280 nM.
In the case of `O=C(C1=C(O)C(=O)N(c2nnc(SCc3ccccc3)s2)[C@@H]1c1ccc(O)cc1)c1ccco1`, the Activity [1] is reported as 62%.
Work on `CO[C@H](C(=O)N1CCc2c(cnc(C)c2CNC(=O)c2cccs2)C1)c1ccccc1` yielded an Activity [1] of 92%.
